Results published in PubChem BioAssay AID743395 (Broad Institute, 2014).
“And” between values parts separate entries of the source, which are not always exact repeats. Equal entries are not always repeated.

Test system: HepG2 viability, CellTiter-Glo ATP luminescence, 72 h
Experiment: HepG2 cell cytotoxicity, dose response, cytotoxicity control, CellTiter-Glo luminescence, cherry-pick, set 2 (AID 743395)

| SMILES | AC35 |
| --- | --- |
| Cc1ccc(-c2ccc3c(c2)O[C@H](CN(C)Cc2ccccn2)[C@@H](C)CN([C@H](C)CO)S3(=O)=O)cc1 | 13.8 µM |
| CN(C)CCNc1ccc2ncn3c4ccc(O)cc4c(=O)c1c23 | 2.3 µM |
| CC(=O)Nc1sc2c(c1-c1nc3ccccc3s1)CN(C(C)C)CC2 | 3.4 µM |
| COc1ccccc1CNC(=O)Nc1nc(C(N)Cc2ccc(Cl)cc2)cs1 (stereo not given) | 9.79 µM |
| Nc1sc(-c2ccccc2)cc1-c1n[nH]c(=S)n1C1CCCCC1 | 7.54 µM |
| COc1ccc(C2=Nn3c(nnc3-c3ccccc3F)SC2)cc1OC1CCCC1 | 11.1 µM |
| Cc1ccnc2c1ccc1cccnc12 | 2.98 µM |
| c1ccc2c(NCCCN3CCOCC3)c3ccccc3nc2c1 | 2.78 µM |
| Cn1nccc1C(=O)N/N=C/c1c(O)ccc2ccccc12 | 4.13 µM |
| CCN(CC)c1ccc(/C=N/NC(=O)c2ccco2)c(O)c1 | 1.13 µM |
| CO[C@@]12[C@@H]3N[C@@H]3CN1C1=C(C(=O)C(N)=C(C)C1=O)[C@@H]2COC(N)=O | 9.61 µM |
| C[C@@H]1CN([C@H](C)CO)S(=O)(=O)c2ccc(-c3ccccc3)cc2O[C@H]1CN(C)Cc1ccccn1 | 16.7 µM |
| COc1cc(C(=O)Nc2ccc3c(c2)ncn3C)cc(OC)c1OC | 14.5 µM |
| COc1ccc(CNC(=O)c2c(C)oc3c2C(=O)c2ccccc2C3=O)cc1 | 2.36 µM |
| CN(C)CCn1c2ccccc2c2nc3ccc([N+](=O)[O-])cc3cc21 | 20.8 µM |
| CC(C)Oc1ncnc2c1[nH]c1ccccc12 | 8.5 µM |
| O=C(Nc1cccc(F)c1)N1CCCCN2[C@@H](CO)[C@H](c3ccc(C#Cc4ccccc4)cc3)[C@@H]2C1 | 9.45 µM |
| Cc1ccc(S(=O)(=O)N2CCCCC2CCNC(=O)C(=O)NCc2ccccc2)cc1 (stereo not given) | 12.5 µM |
| O=C1/C(=C\c2ccc(O)cc2)SC(=S)N1Cc1ccccc1 | 17.3 µM |
| CCOC(=O)c1c(C)[nH]c(C(=O)N/N=C/c2ccc(OC)c(OC)c2)c1C | 6.01 µM |
| C[C@H]1CN([C@@H](C)CO)S(=O)(=O)c2ccc(C#Cc3ccc(F)cc3)cc2O[C@H]1CN(C)C(=O)NC1CCCC1 | 19.1 µM |
| Cc1nn(S(=O)(=O)c2ccc(Cl)cc2)c(C)c1Sc1ccc([N+](=O)[O-])cc1 | 21.8 µM |

| SMILES | AC35 |
| --- | --- |
| C[C@H]1CN([C@@H](C)CO)S(=O)(=O)c2ccc(-c3ccc(C#N)cc3)cc2O[C@@H]1CN(C)Cc1ccccn1 | 5.26 µM |
| COc1ccc(Nc2nc(-c3sc(C)nc3C)cs2)cc1 | 1.29 µM |
| Oc1ccc2ccccc2c1N=Nc1nccs1 | 11.3 µM |
| CCN(c1cccc(C)c1)S(=O)(=O)c1ccc(-c2cc(C)no2)s1 | 8.73 µM |
| CCOc1ccc(C)cc1S(=O)(=O)n1cnc2ccccc21 | 11.7 µM |
| COc1cccc2c1C(=O)c1c(O)c3c(c(O)c1C2=O)CC(O)(C(=O)CO)CC3OC1CC(N(C)C)C(O)C(C)O1 (stereo not given) | 0.0659 µM |
| O=C(N/N=C/c1cc(Br)cc(Cl)c1O)c1ccc2c(c1)OCO2 | 10.6 µM |
| COc1ccc2cc(CN(CC3CCCO3)C(=S)Nc3ccccc3)c(=O)[nH]c2c1 (stereo not given) | 13 µM |
| CCN(CC)C(=O)c1oc2ccc(S(=O)(=O)N3CC(C)CC(C)C3)cc2c1C (stereo not given) | 12.9 µM |
| O=C(NCc1ccccc1)C1Cc2c(-c3cccc(F)c3)ccnc2O1 (stereo not given) | 22.1 µM |
| N#CC(C#N)=C1C=C2C=C(N3CCCCCC3)CCC2CC1 (stereo not given) | 18 µM |
| COc1cc(C2CC(=O)N(c3ccc(C)cc3)C(=O)C2)cc(OC)c1OC | 10.7 µM |
| O=c1c2ccccc2oc2cc(-c3ccc4[nH]ccc4c3)ccc12 | 4.72 µM |
| COc1cc(OC)cc(C(=O)N[C@H](C(=O)Nc2nc3ccccc3[nH]2)C(C)C)c1 | 10.2 µM |
| O=[N+]([O-])c1ccc(/C=C/C2=NN(c3ccccc3)C(c3ccco3)C2)o1 (stereo not given) | 15.1 µM |
| O=C(NCCN1C(=O)S/C(=C\c2ccc(OC(F)F)cc2)C1=O)c1cnccn1 | 10.5 µM |
| COc1ccc(C)cc1Nc1c2c(nc3ccccc13)CCC2 | 8.79 µM |
| Cc1ccc(S(=O)(=O)Nc2ccc3c(c2)CC(=O)N([C@@H](C)CO)C[C@@H](C)[C@@H](CN(C)Cc2ccc(Cl)c(Cl)c2)O3)cc1 | 10.3 µM |
| O=C1NC(=Nc2ccc(O)cc2)S/C1=C/c1ccco1 | 11.7 µM |
| Cc1cc(NCc2ccccn2)n2ncc(-c3ccccc3)c2n1 | 7.75 µM |
| Cn1cc(C(=O)N/N=C/c2ccc3c(c2)OCO3)c2ccccc21 | 11.2 µM |
| CC(C)Nc1ccc(Nc2ccnc3cc4ccccc4cc23)cc1 | 2.44 µM |

| SMILES | AC35 |
| --- | --- |
| Nc1[nH]c(C(=O)c2ccccc2)c(-c2ccccc2C(F)(F)F)c1C(=O)NCCc1c[nH]c2ccccc12 | 22.4 µM |
| c1ccc2c(c1)C1=NCCN1c1ccccc1-2 | 3.01 µM |
| Cc1ccc(-c2ccc3c(c2)O[C@@H](CN(C)Cc2ccccn2)[C@H](C)CN([C@H](C)CO)S3(=O)=O)cc1 | 15.3 µM |
| CCC(=O)N1CC2(CCN(Cc3ccc(Cl)cc3)CC2)c2c(n(C)c3cc(OC)ccc23)[C@H]1CO | 9.27 µM |
| Cc1c(C(=O)N/N=C/c2c(O)ccc3ccccc23)nnn1-c1nonc1N | 1.32 µM |
| Oc1c(Cl)cc(CN2CCOCC2)c2cccnc12 | 7.67 µM |
| Cc1ccc2nc(-c3ccc4c(c3)OCCO4)cn2c1 | 8.36 µM |
| COc1ccc2c3c([nH]c2c1)[C@H](CO)N(C(=O)C1CCOCC1)CC31CCN(Cc2cccc(F)c2)CC1 | 2.74 µM |
| CC[n+]1c(-c2ccccc2)c2cc(N)ccc2c2ccc(N)cc21 | 21.5 µM |
| COc1cc2c(c(Br)c1N)-c1cc(Br)c(N)cc1C2=O | 0.431 µM |
| CCN1/C(=C\c2ccc3cc(C)ccc3[n+]2CC)Sc2cc(C)c(C)cc21 | 3.19 µM |
| COc1cccc(N=Nc2ccc3cccnc3c2O)c1 | 4.42 µM |
| COc1ccc(CN(C)C[C@H]2OCCCC[C@H](C)Oc3ccc(NC(=O)Nc4ccc(C(F)(F)F)cc4)cc3C(=O)N([C@H](C)CO)C[C@H]2C)cc1 | 10.1 µM |
| CC1CCN(C(=O)C2COc3ccccc3O2)CC1 (stereo not given) | 21.8 µM |
| COc1ccccc1Nc1c2c(nc3ccccc13)CCC2 | 7.12 µM |
| COc1cc(/C=C2/SC(=S)N(Cc3ccccc3)C2=O)cc(Cl)c1O | 12.5 µM |
| Cc1ccc(-c2ccc([C@H]3[C@@H](CO)N4CCCCN(C(=O)Nc5cccc(F)c5)C[C@H]34)cc2)cc1 | 11 µM |
| CC(=O)c1cccc(Nc2c3c(nc4ccccc24)CCC3)c1 | 17.9 µM |
| CC(=O)Nc1ccc(Nc2c3ccccc3nc3ccccc23)cc1 | 5.33 µM |
| NC(=S)NN=Cc1nccc2c(N)cccc12 | 4.16 µM |
| COc1cccc(Nc2nc(-c3sc(NC(=O)c4ccccc4)nc3C)cs2)c1 | 6.58 µM |
| COc1cccc(/C=N/Nc2ncnc(Cl)c2N)c1O | 2.15 µM |

| SMILES | AC35 |
| --- | --- |
| Cc1cccc(NS(=O)(=O)c2ccc(-c3cnc(C4CC4)o3)cc2)c1 | 5.11 µM |
| C[n+]1c2cc(N)ccc2cc2ccc(N)cc21 | 1.17 µM and 2.2 µM |
| CC(=O)c1cccc(-c2ccnc3c2CC(C(=O)NCc2ccco2)O3)c1 (stereo not given) | 6.09 µM |
| O=[N+]([O-])c1ccc(N2CCOCC2)c2c1no[n+]2[O-] | 8.72 µM |
| CCOc1ccc(C(=O)COC(=O)Cc2n[nH]c(=O)c3ccccc23)cc1 | 19.3 µM |
| COc1ccc(-c2cc(C(F)F)n3ncc(C(=O)N4CCc5ccccc54)c3n2)cc1 | 9.81 µM |
| COc1cc(NC(=O)N2CCNC2=O)cc(C(=O)Nc2cccc(C(F)(F)F)c2)c1 | 1.54 µM |
| Cc1ccc(-n2nnnc2SCC(=O)NC(C(=O)O)(c2ccccc2)c2ccccc2)cc1C | 15 µM |
| O=Nc1ccc(O)c2ncccc12 | 5.57 µM |
| c1ccc(CCNc2nc(-c3ccccn3)nc3ccccc23)cc1 | 4.46 µM |
| O=C(N/N=C/c1cc2c3c(c1O)CCCN3CCC2)c1ccccc1O | 0.751 µM |
| Cc1ccc(-c2csc(Nc3ccccn3)n2)cc1 | 13 µM |
| C=CCCC(=O)Nc1nc(C)c(-c2csc(Nc3cc(OC)ccc3OC)n2)s1 | 5.68 µM |
| Cc1cccc(NC(=S)N/N=C/c2cccc(O)c2)c1C | 12.2 µM |
| CNc1ccc2c3c(cccc13)C(=O)N(C)C2=O | 15.7 µM |
| Cc1cc(Br)cc(/C=N/NC(=O)c2ccc3c(c2)OCO3)c1O | 8 µM |
| O=C(Nc1nc(-c2ccccn2)cs1)c1ccc(F)c(S(=O)(=O)N2CCOCC2)c1 | 11.3 µM |
| COc1cc(OC)c2c(-c3cccc(-c4sccc4C(C)=O)c3)cc(=O)oc2c1 | 7.12 µM |
| CCOc1ccc(NC(=O)c2cc(OC)nc3ccccc23)cc1 | 14.3 µM |
| CC1(C(=O)NCc2cccs2)Cc2c(-c3ccc4c(c3)OCO4)ccnc2O1 (stereo not given) | 16.4 µM |
| O=C(N/N=C/c1c(O)ccc2ccccc12)c1ccc(CO)nc1 | 5.89 µM |
| COc1ccccc1N=C1SC(C(=O)Nc2cccc(Cl)c2Cl)C(N)=C1C(N)=O (stereo not given) | 18.4 µM |

| SMILES | AC35 |
| --- | --- |
| CC(=O)NC(c1ccc(Cl)cc1Cl)c1ccc2cccnc2c1O (stereo not given) | 0.921 µM |
| C=C1C(=O)O[C@@H]2C[C@@H](C)[C@@H]3C=CC(=O)[C@@]3(C)[C@@H](O)[C@H]12 | 2.99 µM |
| C/C(=N\NC(=O)c1cc(-c2cccs2)nc2ccccc12)c1ccccn1 | 1.63 µM |
| Cc1cnc(NC(=O)c2ccc3c(c2)OCCO3)s1 | 4.22 µM |
| N#CC1=C(N)Oc2c(ccc3cccnc23)C1c1ccccc1 (stereo not given) | 6.64 µM |
| C#Cc1cc(N2CCN(C(=O)c3ccoc3)CC2)n2nc(-c3cccc(Cl)c3)cc2n1 | 7.94 µM |
| CC1=Nc2cc(C(=O)NCC3CCCO3)ccc2Sc2ccc(C)cc21 (stereo not given) | 13.5 µM |
| CC(=O)c1ccc(Nc2cc(C)nc3c(C)cc(C)cc23)cc1 | 7.71 µM |
| Cc1cccc(N2CCN(Cc3cn(C)nc3-c3ccccc3F)CC2)n1 | 3.97 µM |
| COc1cc(Nc2c3c(nc4ccccc24)CCC3)cc(OC)c1OC | 7.54 µM |
| CC(C)C[C@H](NC(=O)c1nc[nH]c1C(=O)N1CCN(C(=O)OC(C)(C)C)CC1)C(=O)OC(C)(C)C | 14.6 µM |
| CCN1/C(=C/c2ccc3cc(C)cc(C)c3[n+]2CC)Sc2cc(C)ccc21 | 0.908 µM |
| COc1ccc(N2CCc3c(C)nc4c(OC)cc(OC)cc4c32)cc1 | 9.38 µM |
| COc1ccc(OC)c(-c2cnc(OC(C)(C)C)nc2OC(C)(C)C)c1 | 19.3 µM |
| COc1ccc2noc3c2c1C(=O)c1ccccc1-3 | 15.4 µM |
| O=C1OCC2=C1C(c1ccc3c(c1)OCO3)c1cc3c(cc1O2)OCO3 (stereo not given) | 3.26 µM |
| CC1(C)CCN2CCC(C)(C)c3c(O)ccc1c32 | 6.54 µM |
| Cc1ccc(/C=N/NC(=O)c2ccc3ccccc3c2)s1 | 9.16 µM |
| O=c1[nH]c(/C=C/c2ccccc2F)nc2ccccc12 | 9.06 µM |
| COc1ccc(NC(=O)C(=O)NCC2CCCN2S(=O)(=O)c2cccs2)cc1 (stereo not given) | 12.8 µM |
| CCc1c(C)nc2ncnn2c1NCCc1ccc(OC)cc1 | 11.5 µM |
| C=C1SC(Nc2c(C)cc(C)cc2C)=NC12CCCCC2 | 17.2 µM |
